Measurements as given in patent US10945932B2, “Prebiotic oral care compositions containing carboxylic acids” (COLGATE-PALMOLIVE COMPANY, priority 2013, dated 2021).
Where two headings read alike, the source gives them in different places.

What was measured:
[1] = test system: Streptococcus sobrinus; conditions: S sobrinus, BHI
Protocol: (§2) Late exponential growth phase liquid cultures were prepared by transferring the respective bacterium from blood agar plates to BHI and overnight incubation at 37° C. in an anaerobic atmosphere for A. viscosus, V. parvula, F. nucleatum, P. gingivalis, P. intermedia, T forsythia, A. naeslundii, and C. sputigena, and in a 5% CO2 environment for S. salivarius, S. sanguinis, S. mitis, A. actinomycetemcomitans, S. mutans, S. sobrinus and S. gordonii. Overnight cultures were transferred to BHI and adjusted to a concentration of 1×10^7 CFU/ml (colony forming units per ml) by measuring the optical density at 600 nm (OD600) (BioRad SmartSpec 3000). For each strain, 200 μl of the bacterial suspension was added to a 96-well plate containing 20 μl of the respective carboxylic acids. Final concentrations of the carboxylic acids were set to 5, 10, 20 and 25 μmol/ml. […] Plates were incubated as previously described.
(§3) For each combination of bacterium/carboxylic acid, and for each of their respective controls (i.e. the particular bacterium in the nutritionally rich medium with no carboxylic acid), the optical density was measured at 630 nm (OD630) at 0 h, 24 h and 48 h (Thermo Scientific Multiskan Ascent). Additionally, the OD630 for combinations of bacterium/carboxylic acid grown in a 5% CO2 environment were also measured every hour between 0 h and 9 h.
(§4) The experiment was carried out on three different days (thus providing 3 biological replicas) and on each day the experiment was carried out in quadruple (thus providing 4 technical replicas) for each combination of bacterium with carboxylic acid and for each control. For each day and for each combination, the average (mean) of the values obtained (as detailed above) for the four technical replicas was calculated to provide a single value for each combination on each day.

[2] = test system: beneficial oral bacteria and pathogenic oral bacteria; assay: Biofilm growth, prebiotic effect over the whole panel; type: cell-based; conditions: 25 μmol/ml; 48 hours; threshold value of 1.6
Protocol: (§1) Late exponential growth phase liquid cultures were prepared by transferring the respective bacterium from blood agar plates to BHI and overnight incubation at 37° C. in an anaerobic atmosphere for A. viscosus, V. parvula, F. nucleatum, P. gingivalis, P. intermedia, T. forsythia, A. naeslundii, and C. sputigena, and in a 5% CO2 environment for S. salivarius, S. sanguinis, S. mitis, A. actinomycetemcomitans, S. mutans, and S. gordonii. […] Additionally, for each bacterium tested, a background control, to correct for background staining, was added. This background control contained the bacterium tested and 0.03 weight % chlorhexidine, as an antiseptic. Plates were incubated as previously described. After 48 hrs the supernatant was removed from the wells of the plates. The wells were washed twice with 1×100 μL/PBS (phosphate buffered saline), fixed for 20 minutes with 96% vol. ethanol (96% vol. solution in water) and the biofilm retained at the bottom of the wells was stained with 1 weight % crystal violet (1 weight % solution in water). […] Quantification of the stained biofilm was performed by measuring the absorbance at 630 nm using a Multiskan Ascent microplate reader (Thermo Scientific).

[3] = test system: beneficial oral bacteria and pathogenic oral bacteria; conditions: over 48 hours, threshold value of 1.25
From the text: The beneficial oral bacteria tested were Streptococcus mitis, Streptococcus salivarius, Streptococcus sanguinis, Actinomyces viscosus, Streptococcus gordonii, Capnocytophaga sputigena, Actinomyces naeslundii and Veillonella parvula. The pathogenic oral bacteria tested were Streptococcus mutans, Prevotella intermedia, Porphyromonas gingivalis, Fusobacterium nucleatum, Tannerella forsythia, Aggregatibacter actinomycetemcomitans and Streptococcus sobrinus.
as §2, §3, §4
This value was selected in order to exclude low-stimulating metabolites and avoid false positive results.

[4] = test system: Aggregatibacter actinomycetemcomitans; conditions: A actinomycetemcomitans, BHI
Protocol: as §2, §3, §4

[5] = test system: Streptococcus sanguinis; conditions: S sanguinis, BHI
Protocol: as §2, §3, §4

[6] = test system: Tannerella forsythia; assay: Biofilm growth assay in BHI, crystal violet; type: cell-based; conditions: T forsythia
Protocol: as §1

[7] = test system: Actinomyces naeslundii; assay: Biofilm growth assay in BHI, crystal violet; type: cell-based; conditions: A naeslundii
Protocol: as §1

[8] = test system: Streptococcus mitis; assay: Biofilm growth assay in BHI, crystal violet; type: cell-based; conditions: S mitis
Protocol: as §1

[9] = test system: Streptococcus salivarius; assay: Biofilm growth assay in BHI, crystal violet; type: cell-based; conditions: S salivarius
Protocol: as §1

[10] = test system: Streptococcus sanguinis; assay: Biofilm growth assay in BHI, crystal violet; type: cell-based; conditions: S sanguinis
Protocol: as §1

[11] = test system: Capnocytophaga sputigena; assay: Biofilm growth assay in BHI, crystal violet; type: cell-based; conditions: C sputigena
Protocol: as §1

With `O=C(O)CCC(=O)O` [Succinic acid, succinic acid] the “extent of growth, maximal OD630 over 48 hr divided by maximal OD of control (control = 1)” value ([1]; 5 μmol/ml) was 0.9460, the “extent of growth, maximal OD630 over 48 hr divided by maximal OD of control (control = 1)” value ([1]; 10 μmol/ml) was 0.8269 and the “extent of growth, maximal OD630 over 48 hr divided by maximal OD of control (control = 1)” value ([1]; 20 μmol/ml) was 0.4744. The “extent of growth, maximal OD630 over 48 hr divided by maximal OD of control (control = 1)” value ([1]; 25 μmol/ml) was 0.2284, the “prebiotic effect (biofilm growth)” value [2] was “exhibited prebiotic effects” and the “prebiotic effect (extent of growth)” value ([3]; 20 μmol/ml) was “exhibited prebiotic effects”. For the same compound, the “prebiotic effect (extent of growth)” value ([3]; 25 μmol/ml) was “exhibited prebiotic effects”, the “extent of growth, maximal OD630 over 48 hr divided by maximal OD of control (control = 1)” value ([4]; 5 μmol/ml) was 0.6497 and the “extent of growth, maximal OD630 over 48 hr divided by maximal OD of control (control = 1)” value ([4]; 10 μmol/ml) was 0.4197. For the same compound, the “extent of growth, maximal OD630 over 48 hr divided by maximal OD of control (control = 1)” value ([4]; 20 μmol/ml) was 0.1940, the “extent of growth, maximal OD630 over 48 hr divided by maximal OD of control (control = 1)” value ([4]; 25 μmol/ml) was 0.1968 and the “extent of growth, maximal OD630 over 48 hr divided by maximal OD of control (control = 1)” value ([5]; 5 μmol/ml) was 0.7980. The “extent of growth, maximal OD630 over 48 hr divided by maximal OD of control (control = 1)” value ([5]; 10 μmol/ml) was 0.6726, the “extent of growth, maximal OD630 over 48 hr divided by maximal OD of control (control = 1)” value ([5]; 20 μmol/ml) was 0.2724 and the “extent of growth, maximal OD630 over 48 hr divided by maximal OD of control (control = 1)” value ([5]; 25 μmol/ml) was 0.2132. For the same compound, the “biofilm growth, OD at 630 nm (crystal violet) at 48 hrs divided by OD of control (control = 1)” value ([6]; 5 μmol/ml) was 0.3223, the “biofilm growth, OD at 630 nm (crystal violet) at 48 hrs divided by OD of control (control = 1)” value ([6]; 10 μmol/ml) was 0.0000 and the “biofilm growth, OD at 630 nm (crystal violet) at 48 hrs divided by OD of control (control = 1)” value ([6]; 20 μmol/ml) was 0.0000. For the same compound, the “biofilm growth, OD at 630 nm (crystal violet) at 48 hrs divided by OD of control (control = 1)” value ([6]; 25 μmol/ml) was 0.0000, the “biofilm growth, OD at 630 nm (crystal violet) at 48 hrs divided by OD of control (control = 1)” value ([7]; 5 μmol/ml) was 0.7746 and the “biofilm growth, OD at 630 nm (crystal violet) at 48 hrs divided by OD of control (control = 1)” value ([7]; 10 μmol/ml) was 0.2490. The “biofilm growth, OD at 630 nm (crystal violet) at 48 hrs divided by OD of control (control = 1)” value ([7]; 20 μmol/ml) was 0.0240, the “biofilm growth, OD at 630 nm (crystal violet) at 48 hrs divided by OD of control (control = 1)” value ([7]; 25 μmol/ml) was 0.0182 and the “biofilm growth, OD at 630 nm (crystal violet) at 48 hrs divided by OD of control (control = 1)” value ([8]; 5 μmol/ml) was 0.1603. For the same compound, the “biofilm growth, OD at 630 nm (crystal violet) at 48 hrs divided by OD of control (control = 1)” value ([8]; 10 μmol/ml) was 0.1188, the “biofilm growth, OD at 630 nm (crystal violet) at 48 hrs divided by OD of control (control = 1)” value ([8]; 20 μmol/ml) was 0.0851 and the “biofilm growth, OD at 630 nm (crystal violet) at 48 hrs divided by OD of control (control = 1)” value ([8]; 25 μmol/ml) was 0.1085. The “biofilm growth, OD at 630 nm (crystal violet) at 48 hrs divided by OD of control (control = 1)” value ([9]; 5 μmol/ml) was 3.7553, the “biofilm growth, OD at 630 nm (crystal violet) at 48 hrs divided by OD of control (control = 1)” value ([9]; 10 μmol/ml) was 1.2358 and the “biofilm growth, OD at 630 nm (crystal violet) at 48 hrs divided by OD of control (control = 1)” value ([9]; 20 μmol/ml) was 0.6125. For the same compound, the “biofilm growth, OD at 630 nm (crystal violet) at 48 hrs divided by OD of control (control = 1)” value ([9]; 25 μmol/ml) was 1.7869, the “biofilm growth, OD at 630 nm (crystal violet) at 48 hrs divided by OD of control (control = 1)” value ([10]; 5 μmol/ml) was 3.3955 and the “biofilm growth, OD at 630 nm (crystal violet) at 48 hrs divided by OD of control (control = 1)” value ([10]; 10 μmol/ml) was 2.9778. The “biofilm growth, OD at 630 nm (crystal violet) at 48 hrs divided by OD of control (control = 1)” value ([10]; 20 μmol/ml) was 1.7748, the “biofilm growth, OD at 630 nm (crystal violet) at 48 hrs divided by OD of control (control = 1)” value ([10]; 25 μmol/ml) was 1.9952 and the “biofilm growth, OD at 630 nm (crystal violet) at 48 hrs divided by OD of control (control = 1)” value ([11]; 5 μmol/ml) was 2.0880. The “biofilm growth, OD at 630 nm (crystal violet) at 48 hrs divided by OD of control (control = 1)” value ([11]; 10 μmol/ml) was 2.1577.
